Marks after values point to notes of the source that are not given here.

Data set [1] relates to LPS-pretreated mice. Description: animal or person. To be noted: for LPS pretreated i.c.v./i.t. ratio / LPS pretreated ED50 (CI) i.c.v. / LPS pretreated ED50 (CI) i.t.: LPS 1 mg/kg 24 hours i.p.; for LPS pretreated ED50 (CI) i.c.v. / LPS pretreated ED50 (CI) i.t.: tail flick; for LPS pretreated ED50 (CI) i.t. / ED50 values (95% CI) LPS (thermal) / tolerance upon repeated administration: i.t.; for ED50 values (95% CI) LPS (thermal): LPS thermal hyperalgesia model; for tolerance upon repeated administration: LPS-pretreated mice. The method, then:
Male ICR-CD1 mice (17-25 g; Harlan, Madison, Wis.), C3H mice (15-20 g, National Cancer Institute, Bethesda, Md.) or TLR4 knock-out mice (gift from Dr. Sabita Roy) were housed, 4 to a small box in a temperature- and humidity-controlled environment with unlimited access to food and water. They were maintained on a 12 h light/dark cycle. All experiments were approved by the Institutional Animal Care and Use Committee of the University of Minnesota (Minneapolis, Minn.).
The tail flick assay is used to test for antinociception described by D'Amour and Smith^64 and modified by Dewey et. al.^65 Mice are held gently in one hand with the tail positioned in the apparatus (Tail Flick Analgesia Meter, Columbus Instruments, Columbus, Ohio) for radiant heat stimulus. The tail-flick response is elicited by applying radiant heat to the dorsal side of the tail. The test latency is measured before drug treatment (control) and again after the drug treatment (test) at the peak time of the compound, a 10 s maximum cut-off time is used to prevent damage to the tail. Antinociception is quantified according to the method of Harris and Pierson^66 as the percent maximal possible effect (% MPE) which is calculated as: % MPE=(Test−Control/10−Control)×100
A minimum of three groups of eight to ten mice are used for each dose response curve, and each mouse is used only once.
The compounds were tested for acute tolerance by comparing the ED80-90 dose measured on day 1 to the same dose administered and retested 24 hours later on the same mouse.
Compounds were dissolved in 5% DMSO and diluted to less than 1% DMSO for injection. These compounds were administered in a volume of 5-μl either i.c.v (Haley and McCormick) or intrathecal (i.t.) as described for mice by Hylden and Wilcox^67 in conscious mice. […] Time course studies, including the times 5, 10, 20, 30 and 60 minutes were used to determine the peak antinociception.
Pain is a hallmark of many inflammatory conditions. […] Antinociception was evaluated using the radiant heat-induced tailflick assay. Morphine was employed as a standard opioid agonist under these conditions.

Data set [2] concerns control mice. Nature of the data set: Radiant heat tail-flick antinociception, control (LPS-untreated) mice. Format: in vivo. To be noted: control mice; for CONTROLS ED50 (CI) i.c.v. / CONTROLS ED50 (CI) i.t.: tail flick. From the text:
Pain is a hallmark of many inflammatory conditions.

In data set [3] the test system is CFA-induced mechanical hyperalgesia mouse model. Nature of the data set: Complete Freund's Adjuvant (CFA) mechanical hyperalgesia, electronic von Frey. The class given is in vivo, mice. To be noted: i.t. The method, then: Before injection of CFA baseline withdrawal thresholds (g) were obtained from a mechanical stimulation using an electronic von Frey anesthesiometer (IITC Life Sciences, Woodland Hills, USA) by applying an accurate force on both left and right hind paw. (2,3) The left hindpaws were then injected (intraplantar) with a 50% solution of CFA (10 μg, Sigma-Aldrich) in water while the mice are under isoflurane anesthesia (10). Twenty-four hours later the withdrawal threshold (g) was again measured prior to and after the test compound i.t. at 10, 20, 30 and 60 minutes to determine the peak time and subsequent ED50. % MPE was calculated ((Time-point withdrawal threshold with drug−CFA withdrawal threshold)/(Day 0 withdrawal threshold−CFA withdrawal threshold))*100 (Wade, C. L., et al., PLoS One 2013, 8, e79239/1-e79239/11, 11 pp; Martinov, T., et al., J Vis Exp 2013, e51212; Sorge, R. E., et al., J. Neurosci. 2011, 31, 15450-15454).

Data set [4] addresses T1, CCR5 receptors expressed in HEK-293 cells (Homo sapiens, UniProt P51681).
T1 construct: expressed in transfected cells; host or cells: HEK-293 cells, transient transfection with Lipofectamine 2000
Description: Intracellular calcium release, CCL5-stimulated CCR5 in HEK-293 cells. The class given is cell-based. Particulars: CCR5 expressing HEK cells stimulated by CCL5. How it is done: Briefly, HEK-293 cells were cultured at 37° C. in Dulbelcco's modified Eagle's medium supplemented with 10% fetal bovine serum and 1% Penicillin/Streptomycin. Then 100 mm^2 were transiently transfected with CCR5 receptor cDNA using OptiMEM-1 medium (Invitrogen) and Lipofectamine 2000 (Invitrogen, Carlsbad, Calif.) reagent according to manufacturer's protocol (1:2 wt/vol ratio for DNA:Lipofectamine; 16 μg DNA: 32 μl Lipofectamine). The cells were seeded into 96 well plates (half-area; Corning) at 20,000 cells/well after 24 hours and assayed 48 hours after transfection using the FLIPR calcium kit (Molecular Devices) in a Flexstation-III apparatus (Molecular Devices). Cells were incubated with the calcium dye for 45 minutes at 37° C. before the antagonists were added to each well at the concentration listed, and incubated at 37° C. for 15 minutes. The control agonist, CCL5 (RANTES), was added at a concentration that elicited an 80% maximal response in untreated cells (100 nM) to each well and the calcium response measured with and without antagonists for 90 seconds. The change in RFU was calculated by subtracting the minimum relative fluorescent unit (RFU) from the maximum RFU response, replicated 6 times and averaged. Each experiment was repeated at least 3 times and the mean±SEM was plotted for each treatment group. Plates were 80-90% confluent, cells
Background: Calcium flux is commonly read through the fluorescence of an indicator in the cells.

The test system of data set [5] is mice with cisplatin-induced hyperalgesia. Description: Cisplatin-induced peripheral neuropathy, mechanical hyperalgesia (von Frey). To be noted: cisplatin model. Format: in vivo, C3H/HeJ mice. How it is done: Adult male C3H/HeJ mice were tested for mechanical paw withdrawal responses on 2 consecutive days prior to treatment by determining the frequency of hind paw withdrawal evoked by a standard von Frey monofilament with a bending force of 3.9 mN applied to the plantar surface of the hind paws. Mice were then given 1 mg/kg of cisplatin intraperitoneal (i.p.) daily for 7 consecutive days and on day 14 post-injection, mechanical hyperalgesia was assessed. Compounds were administered intrathecally (i.t.) and i.p. weekly to determine peak time effects and ED50/80.

T1 sequence (P51681 whole entry): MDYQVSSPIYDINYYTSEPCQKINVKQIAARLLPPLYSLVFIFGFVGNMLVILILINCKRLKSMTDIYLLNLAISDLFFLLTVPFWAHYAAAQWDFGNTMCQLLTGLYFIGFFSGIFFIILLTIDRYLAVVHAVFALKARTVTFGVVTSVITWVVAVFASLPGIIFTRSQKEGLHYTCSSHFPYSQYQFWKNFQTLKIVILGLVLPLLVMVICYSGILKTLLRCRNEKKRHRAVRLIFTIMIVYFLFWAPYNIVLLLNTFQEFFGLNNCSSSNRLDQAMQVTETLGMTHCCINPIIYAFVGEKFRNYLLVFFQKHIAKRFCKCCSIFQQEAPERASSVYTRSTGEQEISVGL

In the case of `CNC(=O)COCC(=O)NCCCCCCCNC(=O)COCC(=O)N[C@H]1CC[C@@]2(O)C3Cc4ccc(O)c5c4[C@@]2(CCN3C)[C@H]1O5` [Compound 4, reference compound], in data set [1], the “LPS pretreated i.c.v./i.t. ratio” value is 7.93, the “LPS pretreated ED50 (CI) i.c.v.” value amounted to 169 pmol/mouse, the “LPS pretreated ED50 (CI) i.t.” value is given as 21.3 pmol/mouse and the “ED50 values (95% CI) LPS (thermal)” value came to 21 pmol/mouse. For the same compound, the “tolerance upon repeated administration” value in data set [1] is recorded as “exhibited tolerance”. Besides, the CONTROLS i.c.v./i.t. ratio in data set [2] is listed as 0.95. Moreover, in data set [2] (i.c.v.), the “acute tolerance (ED80 retested 24 hours later)” value is “(83.1-141)^c” and the “CONTROLS ED50 (CI) i.c.v.” value came to 108 pmol/mouse. In addition, in data set [2] (i.t.), the “acute tolerance (ED80 retested 24 hours later)” value is listed as “(86.5-148)^c” and the “CONTROLS ED50 (CI) i.t.” value is reported as 113 pmol/mouse. In data set [3], the “ED50 values (95% CI) CFA (mechanical)” value was 27 pmol/mouse.

Regarding `CNC(=O)COCC(=O)N1CCC(CC(=O)N(CCCN2CCC(Cc3ccc(C(N)=O)cc3)CC2)c2ccc(C)c(Cl)c2)CC1` [Compound 8c, N-(3-(4-(4-carbamoylbenzyl)piperidin-1-yl)propyl)-N-(3-chloro-4-methylphenyl)-1-(2-(2-(methylamino)-2-oxoethoxy)acetyl)piperidine-4-carboxyamide], the “inhibiting calcium release (compared with TAK-220)” value in data set [4] is recorded as “equally potent”.

For the compound `CN1CC[C@]23c4c5ccc(O)c4O[C@H]2[C@@H](O)C=C[C@H]3[C@H]1C5` [Morphine, morphine, reference compound], in data set [1], the “LPS pretreated i.c.v./i.t. ratio” value is given as 8.60, the “LPS pretreated ED50 (CI) i.c.v.” value came to 301 pmol/mouse, the “LPS pretreated ED50 (CI) i.t.” value came to 35.0 pmol/mouse and the “ED50 values (95% CI) LPS (thermal)” value is recorded as 35 pmol/mouse. Moreover, the “tolerance upon repeated administration” value in data set [1] is given as “exhibited tolerance”. In data set [2], the CONTROLS i.c.v./i.t. ratio was 11.1. In addition, in data set [2] (i.c.v.), the “CONTROLS ED50 (CI) i.c.v.” value was 301 pmol/mouse. Besides, the “CONTROLS ED50 (CI) i.t.” value in data set [2] (i.t.) is 27.0 pmol/mouse. The “ED50 values (95% CI) CFA (mechanical)” value in data set [3] was found to be 15 pmol/mouse. In data set [5] (i.p.), the “ED50 (95% CI) i.p.” value is given as 14.28 pmol/mouse and the tolerance entry is listed as “significant tolerance”. In addition, the tolerance result in data set [5] (i.p., listed as morphine) is “exhibits 24 h tolerance”. Also, in data set [5] (i.t.), the “ED50 (95% CI) i.t.” value worked out at 27.44 pmol/mouse and the tolerance result is on record as “significant tolerance”.

These data come from patent publication US10464941B2, “Therapeutic compounds” (REGENTS OF THE UNIVERSITY OF MINNESOTA, priority 2015, dated 2019).
